ChEMBL document CHEMBL2021846, “Symplocin A, a linear peptide from the Bahamian cyanobacterium Symploca sp. Configurational analysis of N,N-dimethylamino acids by chiral-phase HPLC of naphthacyl esters” (J Nat Prod, 2012)
The source made the active and inactive calls. No cut-off for these calls is given here.

What was measured:
[1] = test system: HCT-116; test: Cytotoxicity against human HCT116 cells; format: functional, cell-based
[2] = molecular target: T1, Cathepsin E (Homo sapiens, UniProt P14091); test: Inhibition of cathepsin E
T1 sequence (P14091 whole entry): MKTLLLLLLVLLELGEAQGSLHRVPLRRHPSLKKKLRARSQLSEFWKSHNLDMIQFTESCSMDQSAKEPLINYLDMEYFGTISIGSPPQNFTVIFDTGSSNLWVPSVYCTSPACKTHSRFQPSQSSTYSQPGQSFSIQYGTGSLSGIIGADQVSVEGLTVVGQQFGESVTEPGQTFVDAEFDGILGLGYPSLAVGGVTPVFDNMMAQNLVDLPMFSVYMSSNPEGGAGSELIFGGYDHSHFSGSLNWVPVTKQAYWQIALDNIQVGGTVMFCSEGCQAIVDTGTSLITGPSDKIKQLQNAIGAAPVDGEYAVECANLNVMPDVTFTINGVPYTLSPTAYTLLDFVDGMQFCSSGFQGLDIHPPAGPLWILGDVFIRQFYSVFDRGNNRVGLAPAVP

Question: How did the Activity [1] turn out when CC[C@@H](C)[C@H](C(=O)O[C@@H](C(=O)N[C@@H](Cc1ccc(O)cc1)C(=O)N[C@@H](CO)C(=O)N[C@@H](CC(C)C)[C@H](O)CC(=O)N[C@H](C(=O)NCC(=O)N(C)[C@H](Cc1ccccc1)C(=O)N1CCC[C@H]1C(=O)OC)C(C)C)C(C)C)N(C)C [SYMPLOCIN A] was run?
Answer: inactive

Question: And the IC50 [2]?
Answer: 0.3 nM
